# Measured values from paper PMC5471438, “Linaclotide activates guanylate cyclase‐C/cGMP/protein kinase‐II‐dependent trafficking of CFTR in the intestine” (Physiological Reports, 2017).
# Entries after “also recorded” stand apart in the source; their conditions may differ.
# Experiments:
# [1] = tested on: rat jejunum; experiment: Fluid secretion in ligated rat jejunal loops in vivo; design: species or system rat (Sprague–Dawley); conditions: linaclotide 5 μg/mL/loop, 30 min, vs saline (1 mL)
# Experimental: All animal studies were approved by the Institutional Animal Care and Use Committee of Yale University School of Medicine. Briefly, male Sprague–Dawley rats (200–250 g, Charles River Laboratories) were fasted overnight with access to drinking water ad libitum. Anesthesia was performed with Inactin® (Thiobutabarbital sodium salt hydrate, 120 mg/kg/i.p.). The jejunal, ileal, and proximal colonic loops (5 cm length) were prepared using sutures. Loops were instilled either with normal saline (pH7.4, 37°C) (1 mL/loop) or linaclotide (5 μg/mL/loop) for 30 min. At the end of the study, animals were euthanized with Inactin (200 mg/kg/i.p.).
# The guanylate cyclase‐C (GC‐C) agonist linaclotide stimulates the production and accumulation of intracellular cGMP, which acts as a second messenger to enhance fluid secretion in the intestine (Schulz et al. 1990; Busby et al. 2013). We first tested whether linaclotide can enhance fluid secretion in vivo in the rat small intestine. Following anesthesia and laparotomy, intestinal loops were created in rat jejunum and injected either with vehicle (saline, 1 mL) or linaclotide (5 μg/1 mL). […] In this study, we examined whether linaclotide treatment also stimulates fluid secretion by recruiting CFTR to the apical surface of rat jejunum enterocytes in vivo. […]
# [2] = tested on: CFTR; experiment: Surface biotinylation of CFTR in rat jejunum enterocytes after in vivo loop treatment; conditions: linaclotide 5 μg/mL/loop, 30 min in vivo, vs saline and untreated, mean ± SEM (n = 4)
# [3] = tested on: C2BBe cells; experiment: cGMP synthesis in C2BBe cells; assay type: cell-based, human
# [4] = tested on: cGKII (PKGII); experiment: VASP Ser239 phosphorylation in C2BBe cells, Western blot; assay type: cell-based, human; conditions: linaclotide 1 and 3.27 μmol/L, 30 min, 8Br‐cGMP 0.2 and 1 mmol/L positive control
# Experimental: C2BBe or T84 cells were homogenized in TGH lysis buffer [25 mmol/L HEPES, 10% (vol/vol) glycerol, 1% (vol/vol) Triton‐ × 100, pH 7.4] containing protease inhibitors (10 nmol/L iodoacetamide, 1 mmol/L phenylmethylsulfonyl fluoride (PMSF), 2 μg/mL leupeptin) for 30 min on ice. Homogenates were solubilized, subject to centrifugation at 13,200 g for 15 min at 4°C, and cleared supernatants were recovered. Protein concentration of the supernatant was determined with Coomassie Protein Assay Reagent (Pierce) and samples prepared and analyzed as described (Kravtsov et al. 2016). Quantification of surface‐labeled proteins was performed with Quantity One image analysis software.
# VASP was originally characterized as a substrate for both PKG (cGMP‐dependent kinase) and PKA (cAMP‐dependent kinase). […] To determine linaclotide‐induced activation of cGKII, we determined the phosphorylation of VASP^Ser239 30 min following treatment either with vehicle or linaclotide (1 μmol/L and 3.27 μmol/L; the 3.27 μmol/L concentration is equivalent to the 5 μg dose of linaclotide that was used in vivo in the rat jejunum loop). The membrane permeant cGMP analog, 8 Br‐cGMP (0.2 mmol/L, 1 mmol/L), was used as a positive control.
# [5] = tested on: GC‐C; experiment: cGMP in human intestinal mucosa tissues and supernatants; conditions: human jejunum, ileum, ascending colon mucosa, linaclotide 1 μmol/L, 30 and 60 min, 37°C, IBMX 1 mmol/L, EIA, mean ± SD (n = 4)
# [6] = tested on: GC‐C/cGMP pathway; conditions: modulated by MRP4; ref Tchernychev et al. 2015; cited from earlier work
# Text: The cystic fibrosis transmembrane conductance regulator (CFTR) is a cyclic adenosine monophosphate (cAMP) and cGMP‐regulated anion‐selective channel that is expressed on the apical domain of intestinal epithelial cells where it serves as the main conductive pathway for Cl^− and HCO3 ^− ions transported across the membrane into the lumen (Riordan et al. 1989; Anderson et al. 1991; Vaandrager et al. 1997).
substance,measurement,setting,value
linaclotide,fluid secretion in jejunal loop,[1],robust fluid secretion; also recorded: distended and tightly filled with fluid; also recorded: robust increase in fluid accumulation in jejunum loops
same,"surface CFTR (surface biotinylation, Western blot)",[2],highest levels of surface CFTR; also recorded: robust increase in surface CFTR when compared to the untreated intestine
same,EC80 for cGMP synthesis (approximate),[3],~1 µM
same,EC100 for cGMP synthesis (approximate),[3],~3 µmol/L
same,EC50,"[3]; IBMX 1 mmol/L 10 min, linaclotide 0.001–10 μmol/L 30 min, 37°C, pH 7, cGMP in supernatants by LC/MS/MS, n = 4",0.523 µM
same,cGMP synthesis,"[3]; linaclotide 0.001–10 μmol/L, 30 min, IBMX 1 mmol/L",concentration dependently stimulated cGMP synthesis
same,phosphorylation of VASP Ser239,[4],more robust phosphorylation of VASP^Ser239 compared to 8Br‐cGMP; also recorded: higher levels of VASP^Ser239 phosphorylation compared to the lower concentration
same,phosphorylation of VASP Ser239,[4]; listed as Linaclotide,more strongly enhanced phosphorylation of VASP^Ser239 compared to the cGMP analog 8‐Br‐cGMP
same,cGMP level in supernatant (extracellular),[5],"greater after 30 min, compared to levels measured after 60 min"
same,cGMP level in tissue (intracellular),[5],"greater after 30 min, compared to levels measured after 60 min"
same,cGMP level in supernatant (extracellular),[5]; listed as Linaclotide,increased levels of both intracellular and extracellular cGMP
same,cGMP level in tissue (intracellular),[5]; listed as Linaclotide,increased levels of both intracellular and extracellular cGMP
same,transepithelial electrolyte secretion,[6],increased transepithelial electrolyte secretion across the mucosa
